From patent US7772241B2, “Variolin derivatives and their use as antitumor agents” (Pharma Mar S.A., priority 2001, dated 2010)

What was measured:
SK-BR-3 = experiment: Inhibition of cells growth by colorimetric (SRB) assay, SK-BR-3; settings: for GI50 / CC50: Homo sapiens, SK-BR-3, 48 h; for GI50: read-out: GI50 SK-BR-3, SRB assay, 48 hours exposure; for CC50: read-out: LC50 SK-BR-3, SRB assay, 48 hours exposure; for TGI SK-BR-3: SRB assay, 48 hours exposure
In short: (§1)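 Human tumour cells in RPMI 1640 with 10% FBS were seeded at 5×10^3 cells/well, allowed to attach for 18 h, then exposed to samples at 10 to 10^−8 μg/ml for 48 h. Growth was measured by SRB staining after TCA fixation, with absorbance read at 490 nm in triplicate wells.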

PANC-1 = experiment: Inhibition of cells growth by colorimetric (SRB) assay, PANC-1; settings: for GI50 / CC50: Homo sapiens, PANC-1, 48 h; for GI50: read-out: GI50 PANC-1, SRB assay, 48 hours exposure; for CC50: read-out: LC50 PANC-1, SRB assay, 48 hours exposure; for TGI PANC-1: SRB assay, 48 hours exposure
In short: as §1

SK-MEL-28 = experiment: Inhibition of cells growth by colorimetric (SRB) assay, SK-MEL-28; settings: for GI50 / CC50: Homo sapiens, SK-MEL-28, 48 h; for GI50: read-out: GI50 MEL-28, SRB assay, 48 hours exposure; for CC50: read-out: LC50 MEL-28, SRB assay, 48 hours exposure; for TGI MEL-28: SRB assay, 48 hours exposure
In short: as §1

A-549 = experiment: Inhibition of cells growth by colorimetric (SRB) assay, A-549; settings: for GI50 / CC50: Homo sapiens, A549, 48 h; for GI50: read-out: GI50 A-549, SRB assay, 48 hours exposure; for CC50: read-out: LC50 A-549, SRB assay, 48 hours exposure; for TGI A-549: SRB assay, 48 hours exposure
In short: as §1

LoVo-Dox = experiment: Inhibition of cells growth by colorimetric (SRB) assay, LoVo-Dox; settings: for GI50 / CC50: Homo sapiens, 48 h; for GI50: read-out: GI50 LOVO-DOX, SRB assay, 48 hours exposure; for CC50: read-out: LC50 LOVO-DOX, SRB assay, 48 hours exposure; for TGI LOVO-DOX: SRB assay, 48 hours exposure
In short: as §1

LNCaP = experiment: Inhibition of cells growth by colorimetric (SRB) assay, LNCaP; settings: for GI50 / CC50: Homo sapiens, LNCaP, 48 h; for GI50: read-out: GI50 LN-caP, SRB assay, 48 hours exposure; for CC50: read-out: LC50 LN-caP, SRB assay, 48 hours exposure; for TGI LN-caP: SRB assay, 48 hours exposure
In short: as §1

HMEC1 = experiment: Inhibition of cells growth by colorimetric (SRB) assay, HMEC1; settings: for GI50: Homo sapiens, HMEC-1, 48 h, read-out: GI50 H-MEC-1, SRB assay, 48 hours exposure; for TGI H-MEC-1: SRB assay, 48 hours exposure, in M (unit assumed)
[1] = as above; settings: human, HMEC1 cells, LC50 H-MEC-1, SRB assay, 48 hours exposure
HT-29 = experiment: Inhibition of cells growth by colorimetric (SRB) assay, HT-29; settings: for GI50 / CC50: Homo sapiens, HT-29, 48 h; for GI50: read-out: GI50 HT-29, SRB assay, 48 hours exposure; for CC50: read-out: LC50 HT-29, SRB assay, 48 hours exposure; for TGI HT-29: SRB assay, 48 hours exposure
In short: as §1

IGROV-1 = experiment: Inhibition of cells growth by colorimetric (SRB) assay, IGROV-1; settings: for GI50 / CC50: Homo sapiens, IGROV-1, 48 h; for GI50: read-out: GI50 IGROV, SRB assay, 48 hours exposure; for CC50: read-out: LC50 IGROV, SRB assay, 48 hours exposure; for TGI IGROV: SRB assay, 48 hours exposure
In short: as §1

IGROV-ET = experiment: Inhibition of cells growth by colorimetric (SRB) assay, IGROV-ET; settings: for GI50 / CC50: Homo sapiens, 48 h; for GI50: read-out: GI50 IGROV-ET, SRB assay, 48 hours exposure; for CC50: read-out: LC50 IGROV-ET, SRB assay, 48 hours exposure; for TGI IGROV-ET: SRB assay, 48 hours exposure
In short: as §1

LoVo = experiment: Inhibition of cells growth by colorimetric (SRB) assay, LoVo; settings: for GI50 / CC50: Homo sapiens, LoVo, 48 h; for GI50: read-out: GI50 LOVO, SRB assay, 48 hours exposure; for CC50: read-out: LC50 LOVO, SRB assay, 48 hours exposure; for TGI LOVO: SRB assay, 48 hours exposure
In short: as §1

SK-OV-3 = experiment: Inhibition of cells growth by colorimetric (SRB) assay, SK-OV-3; settings: for GI50 / CC50: Homo sapiens, SK-OV-3, 48 h; for GI50: read-out: GI50 SKOV-3, SRB assay, 48 hours exposure; for CC50: read-out: LC50 SKOV-3, SRB assay, 48 hours exposure; for TGI SKOV-3: SRB assay, 48 hours exposure
In short: as §1

K-562 = experiment: Inhibition of cells growth by colorimetric (SRB) assay, K-562; settings: for GI50 / CC50: Homo sapiens, K562, 48 h; for GI50: read-out: GI50 K-562, SRB assay, 48 hours exposure; for CC50: read-out: LC50 K-562, SRB assay, 48 hours exposure; for TGI K-562: SRB assay, 48 hours exposure
In short: as §1

DU-145 = experiment: Inhibition of cells growth by colorimetric (SRB) assay, DU-145; settings: for GI50 / CC50: Homo sapiens, DU-145, 48 h; for GI50: read-out: GI50 DU-145, SRB assay, 48 hours exposure; for CC50: read-out: LC50 DU-145, SRB assay, 48 hours exposure; for TGI DU-145: SRB assay, 48 hours exposure
In short: as §1

COc1ccc2nc3c(cc2c1)c(-c1ccnc(SC)n1)c1ccnc(N)n13 [Compound 18b]
GI50 (SK-BR-3): ≥ 25.7 µM | CC50 (SK-BR-3): ≥ 25.7 µM | TGI SK-BR-3 (SK-BR-3): 2.57E−05 | GI50 (PANC-1): 10.3 µM | CC50 (PANC-1): ≥ 25.7 µM | TGI PANC-1 (PANC-1): 2.57E−05 | GI50 (SK-MEL-28): ≥ 25.7 µM | CC50 (SK-MEL-28): ≥ 25.7 µM | TGI MEL-28 (SK-MEL-28): 2.57E−05 | GI50 (A-549): ≥ 25.7 µM | CC50 (A-549): ≥ 25.7 µM | TGI A-549 (A-549): 2.57E−05 | GI50 (LoVo-Dox): ≥ 25.7 µM | CC50 (LoVo-Dox): ≥ 25.7 µM | TGI LOVO-DOX (LoVo-Dox): 2.57E−05 | GI50 (LNCaP): 16600 nM | CC50 (LNCaP): ≥ 25.7 µM | TGI LN-caP (LNCaP): 2.57E−05 | GI50 (HMEC1): 12.2 µM | TGI H-MEC-1 (HMEC1): 1.69E−05 | CC50 at 48 h [1]: 23.3 µM | GI50 (HT-29): ≥ 25.7 µM | CC50 (HT-29): ≥ 25.7 µM | TGI HT-29 (HT-29): 2.57E−05 | GI50 (IGROV-1): 20.8 µM | CC50 (IGROV-1): ≥ 25.7 µM | TGI IGROV (IGROV-1): 2.57E−05 | GI50 (IGROV-ET): ≥ 25.7 µM | CC50 (IGROV-ET): ≥ 25.7 µM | TGI IGROV-ET (IGROV-ET): 2.57E−05 | GI50 (LoVo): ≥ 25.7 µM | CC50 (LoVo): ≥ 25.7 µM | TGI LOVO (LoVo): 2.57E−05 | GI50 (SK-OV-3): ≥ 25.7 µM | CC50 (SK-OV-3): ≥ 25.7 µM | TGI SKOV-3 (SK-OV-3): 2.57E−05 | GI50 (K-562): ≥ 25.7 µM | CC50 (K-562): ≥ 25.7 µM | TGI K-562 (K-562): 2.57E−05 | GI50 (DU-145): ≥ 25.7 µM | CC50 (DU-145): ≥ 25.7 µM | TGI DU-145 (DU-145): 2.57E−05

Nc1nccc(-c2c3cc(Cl)cnc3n3c(N)nccc23)n1 [Compound 49]
GI50 (SK-BR-3): 7.19 µM | CC50 (SK-BR-3): 32.1 µM | TGI SK-BR-3 (SK-BR-3): 1.86E−05 | GI50 (PANC-1): 10.7 µM | CC50 (PANC-1): 32.1 µM | TGI PANC-1 (PANC-1): 3.21E−05 | GI50 (SK-MEL-28): 6.35 µM | CC50 (SK-MEL-28): 32.1 µM | TGI MEL-28 (SK-MEL-28): 1.43E−05 | GI50 (A-549): 2.11 µM | CC50 (A-549): 32.1 µM | TGI A-549 (A-549): 9.21E−06 | GI50 (LoVo-Dox): 2.11 µM | CC50 (LoVo-Dox): 27.6 µM | TGI LOVO-DOX (LoVo-Dox): 7.86E−06 | GI50 (LNCaP): 1260 nM | CC50 (LNCaP): 19.5 µM | TGI LN-caP (LNCaP): 4.30E−06 | GI50 (HMEC1): 0.456 µM | TGI H-MEC-1 (HMEC1): 4.59E−06 | CC50 at 48 h [1]: 8.73 µM | GI50 (HT-29): 12 µM | CC50 (HT-29): 32.1 µM | TGI HT-29 (HT-29): 3.21E−05 | GI50 (IGROV-1): 4.68 µM | CC50 (IGROV-1): 29.3 µM | TGI IGROV (IGROV-1): 1.17E−05 | GI50 (IGROV-ET): 4.23 µM | CC50 (IGROV-ET): 32.1 µM | TGI IGROV-ET (IGROV-ET): 1.20E−05 | GI50 (LoVo): 2.37 µM | CC50 (LoVo): 32.1 µM | TGI LOVO (LoVo): 1.16E−05 | GI50 (SK-OV-3): 5.42 µM | CC50 (SK-OV-3): 32.1 µM | TGI SKOV-3 (SK-OV-3): 1.50E−05 | GI50 (K-562): 13.9 µM | CC50 (K-562): 32.1 µM | TGI K-562 (K-562): 2.77E−05 | GI50 (DU-145): 5.33 µM | CC50 (DU-145): 32.1 µM | TGI DU-145 (DU-145): 1.38E−05

Nc1nccc(-c2c3cc(F)c(Cl)nc3n3c(N)nccc23)n1 [Compound 50]
GI50 (SK-BR-3): 11.6 µM | CC50 (SK-BR-3): ≥ 30.3 µM | TGI SK-BR-3 (SK-BR-3): 3.03E−05 | GI50 (PANC-1): ≥ 30.3 µM | CC50 (PANC-1): ≥ 30.3 µM | TGI PANC-1 (PANC-1): 3.03E−05 | GI50 (SK-MEL-28): ≥ 30.3 µM | CC50 (SK-MEL-28): ≥ 30.3 µM | TGI MEL-28 (SK-MEL-28): 3.03E−05 | GI50 (A-549): 5.25 µM | CC50 (A-549): ≥ 30.3 µM | TGI A-549 (A-549): 3.03E−05 | GI50 (LoVo-Dox): 12.6 µM | CC50 (LoVo-Dox): ≥ 30.3 µM | TGI LOVO-DOX (LoVo-Dox): 3.03E−05 | GI50 (LNCaP): 886 nM | CC50 (LNCaP): ≥ 30.3 µM | TGI LN-caP (LNCaP): 1.88E−06 | GI50 (HMEC1): 8.01 µM | TGI H-MEC-1 (HMEC1): 2.44E−05 | CC50 at 48 h [1]: ≥ 30.3 µM | GI50 (HT-29): ≥ 30.3 µM | CC50 (HT-29): ≥ 30.3 µM | TGI HT-29 (HT-29): 3.03E−05 | GI50 (IGROV-1): 20.3 µM | CC50 (IGROV-1): ≥ 30.3 µM | TGI IGROV (IGROV-1): 3.03E−05 | GI50 (IGROV-ET): 12.9 µM | CC50 (IGROV-ET): ≥ 30.3 µM | TGI IGROV-ET (IGROV-ET): 3.03E−05 | GI50 (LoVo): 12 µM | CC50 (LoVo): ≥ 30.3 µM | TGI LOVO (LoVo): 3.03E−05 | GI50 (SK-OV-3): 15.8 µM | CC50 (SK-OV-3): ≥ 30.3 µM | TGI SKOV-3 (SK-OV-3): 3.03E−05 | GI50 (K-562): ≥ 30.3 µM | CC50 (K-562): ≥ 30.3 µM | TGI K-562 (K-562): 3.03E−05 | GI50 (DU-145): 16.5 µM | CC50 (DU-145): ≥ 30.3 µM | TGI DU-145 (DU-145): 3.03E−05
